Measured values taken from the supplement of paper PMC13380429.

Assays:
Conditions in all cases: 72 h
[1] = test system: U2OS; assay: relative viability EC50 (midpoint between 100% and the lowest measured viability); higher = less toxic
[2] = test system: Calu-3; assay: as above
[3] = test system: Vero E6; assay: as above
[4] = test system: Caco-2; assay: as above
[5] = test system: HepG2; assay: as above
[6] = test system: U2OS; assay: cell viability relative to DMSO; higher = less toxic
[7] = test system: Calu-3; assay: as above
[8] = test system: Vero E6; assay: as above
[9] = test system: Caco-2; assay: as above
[10] = test system: HepG2; assay: as above
[11] = test system: U2OS; assay: drug sensitivity score (DSS) for viability; higher = more toxic; extreme values may be limits of the assay
[12] = test system: Calu-3; assay: as above
[13] = test system: Vero E6; assay: as above
[14] = test system: Caco-2; assay: as above
[15] = test system: HepG2; assay: as above

SMILES	relative viability EC50 [1]	relative viability EC50 [2]	relative viability EC50 [3]	relative viability EC50 [4]	relative viability EC50 [5]	cell viability ([6]; 1 nM)	cell viability ([6]; 10 nM)	cell viability ([6]; 100 nM)	cell viability ([6]; 1000 nM)	cell viability ([6]; 10000 nM)	cell viability ([7]; 1 nM)	cell viability ([7]; 10 nM)	cell viability ([7]; 100 nM)	cell viability ([7]; 1000 nM)	cell viability ([7]; 10000 nM)	cell viability ([8]; 1 nM)	cell viability ([8]; 10 nM)	cell viability ([8]; 100 nM)	cell viability ([8]; 1000 nM)	cell viability ([8]; 10000 nM)	cell viability ([9]; 1 nM)	cell viability ([9]; 10 nM)	cell viability ([9]; 100 nM)	cell viability ([9]; 1000 nM)	cell viability ([9]; 10000 nM)	cell viability ([10]; 1 nM)	cell viability ([10]; 10 nM)	cell viability ([10]; 100 nM)	cell viability ([10]; 1000 nM)	cell viability ([10]; 10000 nM)	drug sensitivity score [11]	drug sensitivity score [12]	drug sensitivity score [13]	drug sensitivity score [14]	drug sensitivity score [15]
CCN(CC)CCCCC1CCN(CC(=O)N2c3ccccc3C(=O)Nc3cccnc32)CC1 [AQ-RA741]	> 10 µM	> 10 µM	> 10 µM	> 10 µM	> 10 µM	97.1%	96.3%	105%	98.6%	104%	105%	94.7%	108%	109%	96.4%	102%	106%	96.7%	97.8%	95.9%	101%	90.9%	98.2%	86.4%	97.1%	100%	102%	102%	101%	90.1%	0	0	0	0	0
COc1ccc2cc(C(C)C(=O)Oc3ccc(C(N)=S)cc3)ccc2c1 (stereo not given) [ATB-346]	> 10 µM	> 10 µM	> 10 µM	> 10 µM	> 10 µM	99.7%	100%	99.1%	99.9%	96.9%	100%	102%	98.8%	102%	101%	100%	94.3%	95.7%	94.4%	97.6%	90%	102%	93.7%	89.6%	98.6%	98.2%	88.4%	97.2%	98.7%	97.7%	0	0	0	0	0
Cc1c(-c2ccnn2C)cc(C(=O)NCc2ccc(S(C)(=O)=O)cn2)c(=O)n1-c1cccc(C(F)(F)F)c1 [AZD9668]	> 10 µM	> 10 µM	> 10 µM	> 10 µM	> 10 µM	97%	93.6%	102%	95.7%	102%	94.5%	103%	99.9%	92.9%	97.1%	97.3%	102%	89.7%	92.2%	107%	93.9%	101%	106%	96.9%	101%	101%	102%	98%	108%	103%	0	0	0	0	0
COC(=O)C1=C(C)N(C)C(C)=C(C(=O)OC)C1c1ccc(C(F)(F)F)cc1 [BAY-W-9798]	> 10 µM	> 10 µM	> 10 µM	> 10 µM	> 10 µM	96.9%	102%	96.4%	102%	103%	95.1%	103%	93.4%	98.1%	100%	93.7%	92.5%	94.2%	96.3%	107%	91.8%	99.4%	98.9%	97.1%	95.4%	96.7%	93.3%	106%	96.3%	101%	0	0	0	0	0
N=C(N)SCc1ccc(B(O)O)cc1 [BC-11]	> 10 µM	> 10 µM	> 10 µM	> 10 µM	> 10 µM	102%	102%	98.8%	97.1%	97.1%	92.3%	101%	105%	107%	99.6%	108%	96.6%	97.9%	101%	99.8%	102%	101%	96.1%	108%	92.4%	107%	99.7%	99.8%	88.6%	92.8%	0	0	0	0	0.4
NCCCC[C@H](NC(=O)[C@@H](Cc1cc(Br)c(O)c(Br)c1)NC(=O)N1CCC(N2Cc3ccccc3NC2=O)CC1)C(=O)N1CCN(c2ccncc2)CC1 [BIBN4096]	> 10 µM	> 10 µM	> 10 µM	> 10 µM	> 10 µM	95.8%	98.5%	94.8%	84.5%	91.6%	93.7%	96.9%	100%	110%	105%	102%	97.2%	98.6%	99.1%	104%	88.6%	97%	101%	90.3%	100%	102%	97.2%	92.4%	97.5%	102%	0.3	0	0	0	0
CCOC(=O)[C@]12CC1/C(=N\O)c1ccccc1O2 (stereo not given in full) [CPCCOEt]	> 10 µM	> 10 µM	> 10 µM	> 10 µM	> 10 µM	98.7%	92.2%	96.4%	94.4%	96.4%	94.1%	105%	92.3%	98.4%	95.4%	93.5%	99.1%	90.6%	95.2%	110%	103%	94.7%	89.2%	98.8%	104%	91.7%	102%	93.5%	104%	99.2%	0	0	0	0	0
O=C(c1cc(C2CC2)on1)N(C1CCCCC1)C1CCCCC1 [CYM-5541]	> 10 µM	> 10 µM	> 10 µM	> 10 µM	> 10 µM	98%	97.8%	96.3%	97.2%	94.4%	102%	98.1%	97.2%	96.8%	99%	106%	103%	99.5%	95.3%	99.6%	94.9%	97.8%	97.5%	99.4%	90%	98.6%	93.9%	98.4%	92.3%	89.6%	0	0	0	0	0
OC[C@@H](O)[C@@H](O[C@@H]1O[C@H](CO)[C@H](O)[C@H](O)[C@H]1O)[C@H](O)[C@@H](O)CO [D-LACTITOL MONOHYDRATE]	> 10 µM	> 10 µM	> 10 µM	> 10 µM	> 10 µM	101%	96.9%	95.6%	99.8%	103%	106%	94.9%	99.6%	96.3%	93.5%	100%	98.6%	95.4%	92.8%	99.3%	92.3%	92.3%	98.6%	103%	97.2%	94%	105%	96.2%	89.2%	97.4%	0	0	0	0	0
CCN(CC)c1ccc(/C=N/NC(=O)c2ccc(O)cc2)cc1 [DY131]	> 10 µM	> 10 µM	> 10 µM	> 10 µM	> 10 µM	99.6%	97.5%	101%	95.4%	97.6%	95.4%	91.5%	99.8%	97.8%	95.3%	107%	98.3%	101%	102%	95.1%	94.3%	96.4%	98.4%	95.4%	98.2%	102%	105%	95.9%	105%	83.4%	0	0	0	0	0.2
C[C@]12CCC(=O)C[C@@H]1CC[C@@H]1[C@@H]2CC[C@]2(C)[C@@H](O)CC[C@@H]12 [Dihydrotestosterone]	> 10 µM	> 10 µM	> 10 µM	> 10 µM	> 10 µM	98.2%	104%	94.8%	103%	98.9%	97.6%	99.9%	101%	98.9%	94.3%	106%	99.3%	101%	100%	104%	108%	93.1%	103%	102%	97.5%	112%	95.8%	99.3%	106%	95.3%	0	0	0	0	0
c1cc(-c2sc(-c3ccncc3)c(-c3ccncc3)c2-c2ccncc2)ccn1 [GANT-58]	> 10 µM	> 10 µM	> 10 µM	> 10 µM	> 10 µM	102%	99.2%	99.8%	97.8%	99.2%	98.3%	94.8%	95.3%	88.5%	106%	93%	106%	91.7%	96.4%	111%	105%	99%	94.6%	92.6%	86.6%	90.9%	102%	97.8%	118%	103%	0	0	0	0.2	0
CC(C)n1nnc2cc(C(=O)O)ccc21 [IBC-293]	> 10 µM	> 10 µM	> 10 µM	> 10 µM	> 10 µM	102%	96%	98.3%	97.6%	98.6%	94.9%	91%	100%	101%	103%	96.6%	98.5%	102%	104%	99.5%	102%	98%	101%	106%	95.2%	93.2%	105%	91%	106%	102%	0	0	0	0	0
COC(=O)C[C@H]1CC(c2ccc(O)cc2)=NO1 [ISO-1]	> 10 µM	> 10 µM	> 10 µM	> 10 µM	> 10 µM	95.2%	98.9%	96.1%	106%	96.8%	100%	109%	104%	99.5%	109%	106%	99.7%	97.1%	101%	98.5%	102%	103%	96.9%	93.5%	109%	104%	102%	102%	103%	94.6%	0	0	0	0	0
